Assay results reported in patent publication US20230086913A1, “USE OF SOPHOROLIPIDS AS FEED ADDITIVE” (DSM IP ASSETS B.V., priority 2017, published 2023).
pIC50: −log10 of the molar value. Read-outs that look alike come from different tables or passages of the source.

Legend:
human PBLs = assay: Effect of sophorolipids on inflammatory mediators in LPS-treated human PBLs; type: cell-based; conditions: 1, 5 and 10 μm
Procedure: PBLs were isolated from human blood. PBLs were treated with LPS to induce inflammatory response in the presence of different concentrations (1 μm, 5 μm, and 10 μm) of six sophorolipids: […]); BSL(6'OH,6''OH); and BSL(6'Ac,6''Ac).

Microglial cells = assay: Effect of sophorolipid pre-treatment on inflammatory mediators in LPS-stimulated microglia; type: cell-based, rats; conditions: E22 rat primary microglia, 24 h pre-treatment, LPS stimulation
Procedure: Microglial cells were obtained from primary microglial cultures from […] rats. On day 1, microglial cells were seeded in 96-well plates and allowed to adhere for 24 hours. On day 3, the microglial cells were pre-treated with sophorolipid for 24 hours (n=11). On day 4, the microglial cells were stimulated with lipopolysaccharide (LPS). On day 5, supernatants were collected and analysed for cytokines of interest.

| Compound | TNF-α secretion (human PBLs) | MIP-1β secretion (human PBLs) | pIC50 (Microglial cells; read-out: PGE2 secretion, 1050) | pIC50 (Microglial cells; read-out: TNF-alpha secretion, 1050) | IL-1β secretion (human PBLs) | IL-6 secretion (human PBLs) | IL-8 secretion (human PBLs) |
| --- | --- | --- | --- | --- | --- | --- | --- |
| CCCCOC(=O)CCCCCCC/C=C\CCCCCC[C@H](C)O[C@@H]1O[C@H](COC(C)=O)[C@@H](O)[C@H](O)[C@H]1O[C@@H]1O[C@H](COC(C)=O)[C@@H](O)[C@H](O)[C@H]1O (relative stereo) [BSL(6′Ac,6″Ac), butyl-17-L-[(2′-0-β-D-glucopyranosyl-β-D-glucopyranosyl)-oxy]-cis-9-octadecenoate-6′-6″-diacetate] | decreased | – | – | – | – | – | – |
| CCOC(=O)CCCCCCC/C=C\CCCCCC[C@H](C)O[C@@H]1O[C@H](CO)[C@@H](O)[C@H](O)[C@H]1O[C@@H]1O[C@H](COC(C)=O)[C@@H](O)[C@H](O)[C@H]1O (relative stereo) [ESL(6′OH,6″Ac), ethyl-17-L-[(2′-0-β-D-glucopyranosyl-β-D-glucopyranosyl)-oxy]-cis-9-octadecenoate-6″-acetate] | decreased | decreased | – | – | – | – | – |
| Sophorolipid | – | – | 4.53 | 4.67 | – | – | – |
| CCOC(=O)CCCCCCC/C=C\CCCCCC[C@H](C)O[C@@H]1O[C@H](COC(C)=O)[C@@H](O)[C@H](O)[C@H]1O[C@@H]1O[C@H](COC(C)=O)[C@@H](O)[C@H](O)[C@H]1O (relative stereo) [ESL(6′Ac,6″Ac), ethyl-17-L-[(2′-0-β-D-glucopyranosyl-β-D-glucopyranosyl)-oxy]-cis-9-octadecenoate-6′-6-diacetate] | decreased | decreased | – | – | decreased | decreased | decreased |
